Data set [1] in a line: Ratio of unbound concentration in brain to plasma in Sprague-Dawley rat at 0.20 to 0.25 mg/kg, iv administered through cassette dosing after 0.25 hrs. In kind it is ADME, organism-based.
The nature of data set [2]: Unbound fraction in rat plasma. Type of data set: ADME, cell-free.
Data set [3] addresses T1, Muscarinic acetylcholine receptor M4 (Rattus norvegicus) (UniProt P08485).
T1 sequence (whole entry): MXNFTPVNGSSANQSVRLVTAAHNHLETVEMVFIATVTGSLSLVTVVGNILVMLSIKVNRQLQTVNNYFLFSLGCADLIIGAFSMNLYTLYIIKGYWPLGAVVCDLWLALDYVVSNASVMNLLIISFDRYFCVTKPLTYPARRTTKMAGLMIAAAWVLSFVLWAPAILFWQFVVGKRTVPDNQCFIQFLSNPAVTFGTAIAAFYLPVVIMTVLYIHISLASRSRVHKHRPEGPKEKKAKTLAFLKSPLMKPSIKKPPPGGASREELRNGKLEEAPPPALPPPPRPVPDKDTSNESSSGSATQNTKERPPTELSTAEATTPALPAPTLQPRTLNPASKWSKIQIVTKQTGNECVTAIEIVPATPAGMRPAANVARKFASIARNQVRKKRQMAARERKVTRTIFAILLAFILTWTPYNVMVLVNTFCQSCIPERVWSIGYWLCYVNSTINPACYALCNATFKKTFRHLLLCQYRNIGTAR
Briefly: Positive allosteric modulation of rat M4 receptor expressed in CHO cells co-expressing Gqui5 by calcium mobilization assay relative to acetylcholine. In kind it is functional, cell-based. For orientation: A change in cytosolic calcium serves as a functional read-out for many receptors and channels.

A short description of data set [4]: Plasma clearance in Sprague-Dawley rat at 1 mg/kg, iv. Type of data set: ADME, organism-based.
The next data set has as its target T2, Cytochrome P450 1A2 (Homo sapiens, UniProt P05177).
T2 sequence (P05177 whole entry): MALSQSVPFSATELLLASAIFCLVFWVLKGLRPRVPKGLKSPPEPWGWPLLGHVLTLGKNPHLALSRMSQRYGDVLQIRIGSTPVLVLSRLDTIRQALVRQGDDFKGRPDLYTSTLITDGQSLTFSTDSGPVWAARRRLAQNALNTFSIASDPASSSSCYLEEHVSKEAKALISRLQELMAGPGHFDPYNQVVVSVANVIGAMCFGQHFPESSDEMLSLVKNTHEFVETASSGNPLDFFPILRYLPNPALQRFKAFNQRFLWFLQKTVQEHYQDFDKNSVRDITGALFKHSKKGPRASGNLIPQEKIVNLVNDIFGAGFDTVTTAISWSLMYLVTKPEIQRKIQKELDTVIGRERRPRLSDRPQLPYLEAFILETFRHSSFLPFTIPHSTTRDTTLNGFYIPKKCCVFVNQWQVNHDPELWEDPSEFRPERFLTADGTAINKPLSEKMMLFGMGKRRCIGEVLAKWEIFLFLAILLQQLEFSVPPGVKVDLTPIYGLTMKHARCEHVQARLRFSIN
Briefly: Inhibition of CYP1A2 (unknown origin). In kind it is ADME.

In data set [5] the target is T3, Muscarinic acetylcholine receptor M5 (Homo sapiens, UniProt P08912).
T3 sequence (P08912 whole entry): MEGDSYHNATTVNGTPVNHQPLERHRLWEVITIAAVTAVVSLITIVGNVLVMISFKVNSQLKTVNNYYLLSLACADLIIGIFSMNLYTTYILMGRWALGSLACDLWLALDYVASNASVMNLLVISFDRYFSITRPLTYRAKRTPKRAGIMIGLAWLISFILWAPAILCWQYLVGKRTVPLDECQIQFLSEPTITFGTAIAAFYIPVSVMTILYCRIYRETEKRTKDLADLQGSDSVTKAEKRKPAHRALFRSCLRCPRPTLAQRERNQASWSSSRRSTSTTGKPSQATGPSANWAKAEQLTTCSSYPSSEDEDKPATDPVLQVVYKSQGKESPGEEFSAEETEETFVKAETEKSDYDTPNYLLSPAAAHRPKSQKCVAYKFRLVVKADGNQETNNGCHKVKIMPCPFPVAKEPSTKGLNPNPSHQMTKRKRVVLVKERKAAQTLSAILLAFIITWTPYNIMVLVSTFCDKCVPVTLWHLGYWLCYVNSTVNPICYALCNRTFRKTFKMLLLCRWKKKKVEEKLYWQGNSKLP
Briefly: Binding affinity to human M5 receptor by radio-ligand binding assay.

The target in data set [6] is T4, Muscarinic acetylcholine receptor M4 (Rattus norvegicus, UniProt P08485).
T4 sequence (P08485 whole entry): T1 sequence (whole entry)
Briefly: Positive allosteric modulation of rat M4 receptor expressed in CHO cells co-expressing Gqui5 by calcium mobilization assay. Type of data set: functional, cell-based.

Data set [7] deals with T5, Muscarinic acetylcholine receptor M4 (Homo sapiens) (UniProt P08173).
T5 sequence (whole entry): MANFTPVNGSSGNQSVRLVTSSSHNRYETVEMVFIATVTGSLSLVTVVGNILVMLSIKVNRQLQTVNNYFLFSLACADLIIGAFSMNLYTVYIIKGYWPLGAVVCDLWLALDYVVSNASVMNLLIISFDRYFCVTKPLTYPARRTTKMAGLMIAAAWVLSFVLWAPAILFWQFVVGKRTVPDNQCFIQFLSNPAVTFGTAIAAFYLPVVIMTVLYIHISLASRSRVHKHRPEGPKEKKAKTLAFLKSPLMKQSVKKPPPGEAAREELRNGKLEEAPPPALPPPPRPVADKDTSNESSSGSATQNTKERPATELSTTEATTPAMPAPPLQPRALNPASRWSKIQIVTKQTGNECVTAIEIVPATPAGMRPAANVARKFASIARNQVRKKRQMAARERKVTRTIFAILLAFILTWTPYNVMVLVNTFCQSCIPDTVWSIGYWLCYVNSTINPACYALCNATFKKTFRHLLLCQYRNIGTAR
Briefly: Positive allosteric modulation of human M4 receptor expressed in CHO cells co-expressing Gqui5 by calcium mobilization assay relative to acetylcholine. In kind it is functional, cell-based.

Data set [8] concerns the target T6, Muscarinic acetylcholine receptor M1 (Rattus norvegicus, UniProt P08482).
T6 sequence (P08482 whole entry): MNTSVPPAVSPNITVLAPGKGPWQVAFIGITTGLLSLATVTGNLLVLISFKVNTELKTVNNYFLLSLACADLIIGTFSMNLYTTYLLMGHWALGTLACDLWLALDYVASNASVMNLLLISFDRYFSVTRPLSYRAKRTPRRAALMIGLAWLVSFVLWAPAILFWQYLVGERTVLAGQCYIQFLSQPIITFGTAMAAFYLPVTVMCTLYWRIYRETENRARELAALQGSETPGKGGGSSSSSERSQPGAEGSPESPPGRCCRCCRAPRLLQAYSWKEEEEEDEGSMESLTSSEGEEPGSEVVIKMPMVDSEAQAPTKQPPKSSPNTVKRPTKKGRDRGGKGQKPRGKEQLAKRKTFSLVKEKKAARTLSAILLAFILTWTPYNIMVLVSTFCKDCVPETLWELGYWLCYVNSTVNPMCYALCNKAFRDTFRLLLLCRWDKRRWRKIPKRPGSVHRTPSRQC
Briefly: Binding affinity to rat M1 receptor by radio-ligand binding assay.

A short description of data set [9]: Ratio of total drug level in brain to plasma in Sprague-Dawley rat at 0.20 to 0.25 mg/kg, iv administered through cassette dosing after 0.25 hrs. Type of data set: ADME, organism-based.
A further data set concerns the target Cytochrome P450 2C9 (Homo sapiens, UniProt P11712). Briefly: Inhibition of CYP2C9 (unknown origin). Type of data set: ADME.

The structures appear in SMILES notation.

Cytochrome P450 2C9, sequence (P11712 whole entry): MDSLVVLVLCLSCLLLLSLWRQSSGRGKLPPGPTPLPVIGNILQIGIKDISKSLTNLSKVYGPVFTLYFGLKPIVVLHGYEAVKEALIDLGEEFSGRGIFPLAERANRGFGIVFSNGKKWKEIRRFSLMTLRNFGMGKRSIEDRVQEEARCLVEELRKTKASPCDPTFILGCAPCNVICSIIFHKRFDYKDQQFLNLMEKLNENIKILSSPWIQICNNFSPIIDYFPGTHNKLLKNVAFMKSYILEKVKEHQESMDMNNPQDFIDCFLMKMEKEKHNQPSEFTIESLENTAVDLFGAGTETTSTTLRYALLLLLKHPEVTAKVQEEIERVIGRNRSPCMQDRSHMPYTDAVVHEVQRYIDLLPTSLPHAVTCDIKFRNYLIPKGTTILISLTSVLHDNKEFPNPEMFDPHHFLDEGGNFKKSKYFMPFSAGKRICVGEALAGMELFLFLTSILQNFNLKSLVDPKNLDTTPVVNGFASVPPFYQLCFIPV

Turning to `Cc1nnc2sc(C(=O)NCc3ccc(S(=O)(=O)C(F)F)cc3)c(N)c2c1C`, in data set [1], the “K(p,uu,brain)” value stood at 0.1. Also, the Fu in data set [2] turned out to be 0.066. Besides, the Emax (in general, the greatest response seen or fitted, relative to the assay's reference) was determined as 65.2% in data set [3] and 72.8% in data set [7]. For the same compound, the clearance (commonly the volume of plasma or blood freed of the substance per unit of time) in data set [4] turned out to be 16 mL/min/kg. The IC50 against Cytochrome P450 1A2 and against Cytochrome P450 2C9 was over 30 µM each time. Also, the EC50 (as a rule, the midpoint of the concentration-response curve) in data set [5] is over 30 µM; in data set [6] it was 0.0178 µM; in [8], over 30 µM. Moreover, in data set [9], the Kp (in general, tissue or fluid exposure divided by exposure in the circulation) is listed as 0.11.
Take `Cc1nnc2sc(C(=O)NCc3ccc(S(=O)(=O)C(F)(F)F)cc3)c(N)c2c1C`: the fraction unbound (as a rule, the share of the substance not bound to proteins or other matrix) in data set [2] is 0.031. In addition, the Emax in [3] stood at 68.1%; in data set [7], 56.4%. Besides, the IC50 at Cytochrome P450 1A2 and against Cytochrome P450 2C9 was over 30 µM each time. The EC50 in [5] and in data set [8] was over 30 µM in each case.
With `Cc1nnc2sc(C(=O)NCc3ccc(S(F)(F)(F)(F)F)cc3)c(N)c2c1C`, the “K(p,uu,brain)” value in data set [1] is on record as 1. The figures for the Emax in data set [3] and in [7] were 75.7% and 66.1%, respectively. This compound also displayed a clearance in [4] of 12 mL/min/kg. For the same compound, the IC50 against Cytochrome P450 1A2 and against Cytochrome P450 2C9 was over 30 µM each time. Moreover, the EC50 in data set [5] was over 30 µM; in [6], 0.0302 µM; in data set [8], over 30 µM. The Kp in data set [9] was determined as 1.4.

The values are drawn from ChEMBL document CHEMBL3872258, “Challenges in the development of an M4 PAM in vivo tool compound: The discovery of VU0467154 and unexpected DMPK profiles of close analogs” (Bioorg Med Chem Lett, 2017).
